Data: ChEMBL document CHEMBL1146698, “Phe*-Ala-based pentapeptide mimetics are BACE inhibitors: P2 and P3 SAR” (Bioorg Med Chem Lett, 2004)

How the values were obtained:
Beta-secretase 1 = Beta-secretase 1 (Homo sapiens, UniProt P56817); assay: In vitro inhibition of Beta-secretase-1 in HEK293 (Human Embryonic Kidney) cell line.; type: cell-based
HEK293 = assay: In vitro inhibitory activity against beta-amyloid peptide (Abeta) in HEK293/APP751swe cells; type: functional, cell-based; settings: Homo sapiens
Beta-secretase 2 = target: T1, Beta-secretase 2 (Homo sapiens, UniProt Q9Y5Z0); assay: Selectivity tested against Beta-secretase 2 (BACE) in human
T1 sequence (Q9Y5Z0 whole entry): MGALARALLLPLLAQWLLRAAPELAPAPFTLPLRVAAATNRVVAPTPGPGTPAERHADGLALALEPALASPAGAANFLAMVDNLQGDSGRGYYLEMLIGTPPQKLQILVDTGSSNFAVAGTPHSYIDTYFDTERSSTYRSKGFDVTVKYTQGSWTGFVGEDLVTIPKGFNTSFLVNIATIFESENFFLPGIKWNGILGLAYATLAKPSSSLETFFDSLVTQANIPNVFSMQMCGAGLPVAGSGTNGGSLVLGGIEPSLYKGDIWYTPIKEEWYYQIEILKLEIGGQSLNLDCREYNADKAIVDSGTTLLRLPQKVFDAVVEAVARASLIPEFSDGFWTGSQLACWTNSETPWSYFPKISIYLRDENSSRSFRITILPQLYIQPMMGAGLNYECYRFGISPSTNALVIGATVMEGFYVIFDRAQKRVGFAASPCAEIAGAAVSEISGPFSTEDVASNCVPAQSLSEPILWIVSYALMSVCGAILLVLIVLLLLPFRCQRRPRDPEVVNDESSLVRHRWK

Sequence of Beta-secretase 1 (P56817 whole entry): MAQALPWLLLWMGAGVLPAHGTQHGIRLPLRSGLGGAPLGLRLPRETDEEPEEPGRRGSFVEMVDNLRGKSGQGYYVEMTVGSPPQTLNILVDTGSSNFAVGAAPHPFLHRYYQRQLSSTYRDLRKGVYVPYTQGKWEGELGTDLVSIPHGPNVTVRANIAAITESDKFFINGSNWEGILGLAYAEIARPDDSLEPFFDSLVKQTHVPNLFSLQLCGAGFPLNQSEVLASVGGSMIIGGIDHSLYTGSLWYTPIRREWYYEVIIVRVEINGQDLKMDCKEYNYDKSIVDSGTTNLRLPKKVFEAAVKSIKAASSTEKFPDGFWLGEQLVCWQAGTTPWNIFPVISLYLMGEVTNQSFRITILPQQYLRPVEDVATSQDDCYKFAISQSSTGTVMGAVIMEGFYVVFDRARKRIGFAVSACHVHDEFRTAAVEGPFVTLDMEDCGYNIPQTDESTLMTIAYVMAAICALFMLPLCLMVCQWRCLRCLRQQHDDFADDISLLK

| SMILES | IC50 (Beta-secretase 1) | IC50 (HEK293) | IC50 (Beta-secretase 2) |
| --- | --- | --- | --- |
| CC(C[C@H](O)[C@H](Cc1ccccc1)NC(=O)[C@H](C)NC(=O)[C@H](CCN(C)C)NC(=O)OC(C)(C)C)C(=O)NC(C(=O)NCc1ccncc1)C(C)C (single isomer, unassigned) | 89000 nM | – | – |
| CC(C[C@H](O)[C@H](Cc1ccccc1)NC(=O)[C@H](C)NC(=O)[C@H](CCCC(F)(F)F)NC(=O)OC(C)(C)C)C(=O)NC(C(=O)NCc1ccncc1)C(C)C (single isomer, unassigned) | 419 nM | 13400 nM | – |
| CCC[C@H](NC(=O)OC(C)(C)C)C(=O)N[C@@H](CCSC)C(=O)N[C@@H](Cc1ccccc1)[C@@H](O)CC(C)C(=O)NC(C(=O)NCc1ccncc1)C(C)C (single isomer, unassigned) | 60 nM | 990 nM | – |
| COC[C@H](NC(=O)OC(C)(C)C)C(=O)N[C@@H](C)C(=O)N[C@@H](Cc1ccccc1)[C@@H](O)CC(C)C(=O)NC(C(=O)NCc1ccncc1)C(C)C (single isomer, unassigned) | 118 nM | 4990 nM | – |
| CSCC[C@H](NC(=O)[C@@H](NC(=O)OC(C)(C)C)C(C)C)C(=O)N[C@@H](CC(C)C)[C@@H](O)C[C@@H](C)C(=O)N[C@H](C(=O)NCc1ccccc1)C(C)C | – | – | 500 nM |
| CSCC[C@H](NC(=O)[C@@H](NC(=O)OC(C)(C)C)C(C)C)C(=O)N[C@@H](Cc1ccccc1)[C@@H](O)C[C@@H](C)C(=O)N[C@H](C(=O)NCc1ccccc1)C(C)C | 28 nM | 22000 nM | – |
| COCC[C@H](NC(=O)[C@@H](NC(=O)OC(C)(C)C)C(C)C)C(=O)N[C@@H](Cc1ccccc1)[C@@H](O)CC(C)C(=O)NC(C(=O)NCc1ccncc1)C(C)C (single isomer, unassigned) | 127 nM | 2900 nM | – |
| CC[C@@H](C)[C@H](NC(=O)OC(C)(C)C)C(=O)N[C@@H](C)C(=O)N[C@@H](Cc1ccccc1)[C@@H](O)CC(C)C(=O)NC(C(=O)NCc1ccncc1)C(C)C (single isomer, unassigned) | 42 nM | 410 nM | – |
| CC(C[C@H](O)[C@H](Cc1ccccc1)NC(=O)[C@H](C)NC(=O)[C@@H](NC(=O)OC(C)(C)C)C(C)C)C(=O)NC(C(=O)NCc1ccncc1)C(C)C (single isomer, unassigned) | 82 nM | 2100 nM | – |
| CC(C[C@H](O)[C@H](Cc1ccccc1)NC(=O)[C@H](C)NC(=O)[C@H](CN(C)C)NC(=O)OC(C)(C)C)C(=O)NC(C(=O)NCc1ccncc1)C(C)C (single isomer, unassigned) | 2530 nM | – | – |
| CCC[C@H](NC(=O)OC(C)(C)C)C(=O)N[C@@H](C)C(=O)N[C@@H](Cc1ccccc1)[C@@H](O)CC(C)C(=O)NC(C(=O)NCc1ccncc1)C(C)C (single isomer, unassigned) | 41 nM | 1400 nM | – |
| CC[C@H](NC(=O)OC(C)(C)C)C(=O)N[C@@H](C)C(=O)N[C@@H](Cc1ccccc1)[C@@H](O)CC(C)C(=O)NC(C(=O)NCc1ccncc1)C(C)C (single isomer, unassigned) | 75 nM | 2800 nM | – |
| CC(C[C@H](O)[C@H](Cc1ccccc1)NC(=O)C(C)NC(=O)[C@@H](NC(=O)OC(C)(C)C)C(C)C)C(=O)NC(C(=O)NCc1ccncc1)C(C)C (single isomer, unassigned) | 1060 nM | 48000 nM | – |
| CC(C[C@H](O)[C@H](Cc1ccccc1)NC(=O)[C@H](C)NC(=O)[C@H](CC(F)F)NC(=O)OC(C)(C)C)C(=O)NC(C(=O)NCc1ccncc1)C(C)C (single isomer, unassigned) | 45 nM | 400 nM | – |
| CC(C)C[C@H](NC(=O)OC(C)(C)C)C(=O)N[C@@H](C)C(=O)N[C@@H](Cc1ccccc1)[C@@H](O)CC(C)C(=O)NC(C(=O)NCc1ccncc1)C(C)C (single isomer, unassigned) | 63 nM | 860 nM | – |
| COCC[C@H](NC(=O)OC(C)(C)C)C(=O)N[C@@H](C)C(=O)N[C@@H](Cc1ccccc1)[C@@H](O)CC(C)C(=O)NC(C(=O)NCc1ccncc1)C(C)C (single isomer, unassigned) | 705 nM | – | – |
| CSCC[C@H](NC(=O)[C@@H](NC(=O)OC(C)(C)C)C(C)C)C(=O)N[C@@H](Cc1ccccc1)[C@@H](O)CC(C)C(=O)NC(C(=O)NCc1ccncc1)C(C)C (single isomer, unassigned) | 70 nM | 1700 nM | – |
| CC(C[C@H](O)[C@H](Cc1ccccc1)NC(=O)[C@H](C)NC(=O)[C@H](CC(F)(F)C(F)F)NC(=O)OC(C)(C)C)C(=O)NC(C(=O)NCc1ccncc1)C(C)C (single isomer, unassigned) | 281 nM | 1620 nM | – |
